Data: patent US10975123B2, “Mutant Akt-specific capture agents, compositions, and methods of using and making” (California Institute of Technology, priority 2014, dated 2021)
Where a SMILES comes first, the peptide text is derived from it. [ ]: non-standard residue; d: D form.

Assays:
[1] = target: T1, GST-Akt1(E17K) protein (Homo sapiens, UniProt P31749, E17K); experiment: Ligand-directed tosylate labeling with MALDI-TOF MS of tryptic digests; assay type: binding; conditions: yleaf with N-terminal tosylate-Cy5 (ligand 5), 10x molar excess, two days room temperature
T1 construct: 50 μL of full-length GST-E17K Akt1 from SignalChem was treated with 10× molar excess of the anchor ligand; purchased SignalChem
Source text: The selectivity of the yleaf ligand was further verified using the directed labeling technique reported by Tsukiji et al^19. The approach yields information relative to the binding location of the ligand on the protein target. For this method, a payload is attached to the N-terminus of the targeting yleaf ligand through an electrophilic tosylate linker. Upon ligand binding to the protein target, the payload is transferred onto the protein through a nucleophilic SN2 reaction with proximal nucleophilic amino acid side chains (FIG. 3a). The protein can then be trypsin digested and the identity of the fragments containing the payload can be mapped on the protein surface using mass spectrometry (MS). Thus, the site of ligand binding can be estimated. […]
For the assay, yleaf was modified at the N-terminus to contain a tosylate linker attached to a Cy5 dye molecule to enable easy identification of the labeled and digested protein fragments (FIG. 2a and FIG. 16). […] The labeling of protein target was initially confirmed by visualization on a fluorescent gel reader (FIG. 3b) as well as a Western blotting visualization of an experiment in which a biotin-label was substituted for the fluorescent tag. The labeled protein and an unlabeled control were then trypsin digested from the gel and were analyzed by matrix-assisted laser desorption/ionization time-of-flight (MALDI-TOF) MS (FIGS. 18 and 19). […]

[2] = target: T2, WT 33-mer fragment (6His-tagged) (Homo sapiens, UniProt P31749, H13K); experiment: HPLC-detected immunoprecipitation (pulldown), WT 33-mer; assay type: binding; conditions: 50 μM epitope, overnight 4° C., guanidine elution, in words
T2 construct: made in house; host or cells: chemical synthesis (Fmoc SPPS)
T2 sequence (P31749 1-33 H13K limits assumed): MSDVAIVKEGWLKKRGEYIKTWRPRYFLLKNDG
Source text: The label-modified yleaf (SEQ ID NO: 43) peptide (FIG. 2a and FIG. 12) was subjected to a variety of binding assays against the synthesized WT and E17K 33-mer PHD fragments prepared without the biotin label and alkyne click handle. First, the yleaf (SEQ ID NO: 43) peptide was used in immunoprecipitation assays to pull-down either the WT or E17K mutant 6His-tagged (SEQ ID NO: 4) 33-mer peptide fragments (FIGS. 13 and 14), as opposed to the full-length proteins that were used to initially validate the candidates. Typical immunoprecipitation assays involve western blotting to estimate the amount of protein binding, but 33-mer peptide fragments are not easily quantified on a blot. Because of this, the amount of peptide epitope precipitated in these assays was quantified via injection on an analytical HPLC. These assays further confirmed preferential yleaf (SEQ ID NO: 43) ligand binding to the E17K 33-mer epitope relative to the WT epitope (FIG. 15).
Pulldown assays with the biotinylated anchor and his-tagged 33-mer epitope were performed to verify epitope targeting. […] Because small peptide fragments like the 33-mer epitope are difficult to transfer to and detect on the nitrocellulose membrane as for a traditional Western blot, the amount of binding in these assays was detected via HPLC. […]

T1 sequence (P31749 whole entry E17K): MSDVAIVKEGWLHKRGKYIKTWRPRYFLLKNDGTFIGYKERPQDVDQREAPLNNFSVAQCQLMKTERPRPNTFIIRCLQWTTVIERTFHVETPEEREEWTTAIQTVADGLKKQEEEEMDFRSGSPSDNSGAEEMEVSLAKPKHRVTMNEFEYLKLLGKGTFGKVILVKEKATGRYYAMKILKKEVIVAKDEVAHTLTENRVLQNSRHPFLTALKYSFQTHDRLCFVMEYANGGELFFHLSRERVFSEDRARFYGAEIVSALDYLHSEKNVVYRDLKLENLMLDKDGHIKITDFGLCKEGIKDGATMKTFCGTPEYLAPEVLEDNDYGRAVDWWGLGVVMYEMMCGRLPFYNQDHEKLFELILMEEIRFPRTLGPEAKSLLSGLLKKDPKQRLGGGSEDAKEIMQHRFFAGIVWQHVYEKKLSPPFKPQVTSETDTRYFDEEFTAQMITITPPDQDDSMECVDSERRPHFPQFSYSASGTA

CC(C)C[C@@H](NC(=O)[C@H](N)Cc1ccc(O)cc1)C(=O)N[C@H](CCC(=O)O)C(=O)N[C@H](C)C(=O)N[C@H](Cc1ccccc1)C(N)=O [yleaf] (H-[dY][dL][dE][dA][dF]-NH2; N-terminus assumed)
location of labeled sites on the protein (binding site, off-target binding) [1]: only sites around the expected N-terminal binding site of the yleaf ligand are labeled | amount of WT 33-mer fragment pulled down (HPLC peak) [2]: the least of the WT fragment
